Compound | melting point [°C]
Fc1nc(Cl)c2[nH]cnc2n1 | 162 to 163
CCOP(=S)(OCC)Oc1ccc2c(C)c(Cl)c(=O)oc2c1 | 95
Ic1ncc[nH]1 | 191
NC(=S)Nc1cccnc1 | 159 to 160
OCCN1CCCCC1C(c1ccccc1)c1ccccc1 (stereo not drawn) | 106
N#Cc1ccnc(I)c1 | 79
C=CC(=O)NC(O)C(=O)O (stereo not drawn) | 123 to 127
CNC(=O)N(C)c1nnc(C(F)(F)F)s1 | 136
C1CCC(C2CCCCC2)CC1 | 3 to 4
O=C(O)c1c(Cl)c(Cl)c(Cl)c(Cl)c1C(=O)O | 98
NCCNC(=O)CCn1cnc2c(N)ncnc21 | 196
CCc1cccc([N+](=O)[O-])c1 | -37.9
CC1CCCCC1O (stereo not drawn) | 7
CC[C@@]1(O)CC[C@H]2[C@@H]3CCC4CC(OC(C)=O)CC[C@]4(C)[C@H]3CC[C@@]21C (stereo partly drawn) | 164 to 165
Nc1ncnc2c1ncn2C1OC(COP(=O)(O)O)C(O)C1O (stereo not drawn) | 213
Cc1cc(C(C)(C)C)c(C)cc1O | 71.2
Nc1ncnc2[nH]cnc12 | 360 to 365
COC(=O)c1nccnc1N | 171
CC(=O)CC(=O)O | 36.5
ON=Cc1c(Cl)cccc1Cl | 149
CCCOc1cc(O)cc(OCCC)c1 | 43 to 48
N#Cc1c(Cl)c(Cl)nc(Cl)c1Cl | 139 to 142
CC12C=C(C=O)C(=O)C=C1CCC1C2C(O)CC2(C)C1CCC2(C)O (stereo not drawn) | 210
C#CC1(O)CCC2C3CCC4C(C)(C)CCCC4(C)C3CCC21C (stereo not drawn) | 156 to 158
O=[N+]([O-])OC1COC2C(O[N+](=O)[O-])COC12 (stereo not drawn) | 61
NCC(O)CN | 43
COC(=O)c1cncn1C | 57
CCCC(O)C(CC)CO (stereo not drawn) | -40

Compound | melting point [°C]
O=C1C(=O)C(Cl)=C(Cl)C(Cl)=C1Cl | 125 to 129
FC(F)(F)C(F)(F)C(Cl)(Cl)Cl | -80
N#CC1(N=NC2(C#N)CCCCC2)CCCCC1 | 116
CN(C(=O)COc1nc2ccccc2s1)c1ccccc1 | 135
NCCN(CCN)CCN | -16
COC(=O)c1ccc(Cl)cc1[N+](=O)[O-] | 44
Oc1ccc(Br)c(O)c1 | 103
COc1ccc2c(c1)=NC1=C(C)NCCC=21 | 230
NC(=O)c1cc(C(F)(F)F)cc(C(F)(F)F)c1 | 162
CC(C)(C)OC(=O)N1CCCC[C@@H]1C(=O)O | 118 to 122
Clc1ncnc2sc3c(c12)CCC3 | 108 to 110
N#Cc1c(F)cc(Br)cc1F | 81
COP(=S)(OC)Oc1ccc([N+](=O)[O-])c(Cl)c1 | 21
COCCCN | -65
O=C=Nc1c(Br)cc(F)cc1Br | 44
C=C1C(=O)C23C(OC(C)=O)CC4C5(C)CCCC4(C(=O)OC5)C2C(OC(C)=O)CC1C3OC(C)=O (stereo not drawn) | 235
ClCc1ccc(CCl)cc1 | 100
CCNC(=O)Nc1ncc([N+](=O)[O-])s1 | 228
CN(CC(=O)O)C(=N)N | 255
C1=CCCCCC1 | -56
Nc1[nH]c(=O)[nH]c(=O)c1N=O | 280
NC(=O)C#CC(N)=O | 238
Nc1ccc(C(F)(F)F)cc1I | 51
Oc1ccc2c(O)c3ccccc3cc2c1O | 208
O=C(Cl)CCl | -22
O=C1OC(O)c2cc(Cl)c(Cl)cc21 (stereo not drawn) | 180
CCNc1cc2oc(=O)cc(C(F)(F)F)c2cc1C | 184

Second part, the compound after the results:

melting point [°C] | Compound
198 to 202 | c1ccc2cc3c(cc2c1)nnc1ncnn13
18 | CCOC(=O)c1ccc(Br)cc1
221 | CC1=NCCNc2c1c(=O)n(-c1ccccc1)c1ccccc21
240 | Cc1ccsc1C=CC1=NCCCN1C
158 to 160 | Cc1c(C(=O)CCl)sc2ccc(Cl)cc12
52 to 54 | CC(=O)c1ccc(Oc2ccccc2)cc1
185 | O=C(N[C@@H](Cc1ccc(F)cc1)C(=O)O)OCC1c2ccccc2-c2ccccc21
98 | O=Cc1ccc2[nH]ccc2c1
160 | O=[N+]([O-])c1ccc(N=Nc2ccc(Nc3ccccc3)cc2)cc1
248 to 250 | Cc1ccc(C=Nc2n[nH]c(N=Cc3ccc(C)cc3)c2Cc2ccc(Cl)cc2)cc1
222 | Cc1ccc(C(=O)NS(=O)(=O)c2ccc(N)cc2)cc1C
170 | C=Cc1ccc(C(N)=O)cc1
63 to 65 | CCCc1c(C(=O)OCC)cnn1-c1ccc(Cl)cc1
68 to 72 | CCOc1c(NCc2ccccc2)c(=O)c1=O
203 to 204 | CCOC(=O)c1cnn(-c2ccc([N+](=O)[O-])cc2)c1N
168 | N#C/C(=N/Nc1ccc(Cl)cc1)c1nc(-c2ccccc2)cs1
239 to 240 | O=C1/C(=N\Nc2ccccc2)C(c2ccc([N+](=O)[O-])cc2)=NN1c1ccccc1
100 | N#Cc1c(O)nsc1Nc1ccccc1Cl
66 to 68 | Cc1noc(-c2ccccc2C=O)n1
360 | O=[N+]([O-])c1ccc2c(O)c(-c3ccc(-c4[nH]c5cc([N+](=O)[O-])ccc5c4O)cc3)[nH]c2c1
287 to 289 | O=C1c2ccccc2C(=O)c2c1ccc(O)c2O
271 | C/C(=N\Nc1ccc([N+](=O)[O-])cc1)c1nc2c(ccc3ccccc32)nc1C
166 to 168 | CCCOC(=O)C1=C(C)NC(C)=C(C(=O)OCCC)C1c1cccc(OC)c1O
245 | Oc1cccnc1O
92 to 94 | CC1(C)CCc2cc(S(=O)(=O)Cl)ccc2O1

melting point [°C] | Compound
96 to 98 | N#Cc1cc([N+](=O)[O-])ccc1-n1cccc1
266 to 268 | CC(C)(C)S(=O)(=O)c1cnc(-c2ccccn2)nc1N
98 to 101 | O=C1CCCN1c1ccc(Br)cc1
130 | CCOC(=O)CN(CCCN(CC(=O)OCC)S(=O)(=O)c1ccc(C)cc1)S(=O)(=O)c1ccc(C)cc1
44 | Cc1oc(-c2ccccc2)cc1-c1ccccc1
48 to 50 | c1ccc2c(c1)OCCOCCOCCO2
129 to 131 | COC(=O)C(C#N)=C(NC(=O)c1ccccc1)SC
105 | Brc1cccc2c(/C=N/Nc3ccccc3)cccc12
94 to 95 | Brc1ccc(Oc2ccc(Br)c(Br)c2)cc1Br
101 | Cc1cc(C)cc(CC(=O)O)c1
94 | CC(=O)NCCc1ccccc1[N+](=O)[O-]
240 | O=C(O)c1cc2cc3c4c(c2oc1=O)CCCN4CCC3
95 | O=C(Oc1cccc([N+](=O)[O-])c1)c1ccccc1
75 | CC1=C(C(=O)OC(C)C)C(c2ccc([N+](=O)[O-])cc2)NC(=S)N1 (stereo not drawn)
135 to 136 | N#CSCC(=O)c1ccc(Cl)cc1
134 to 135 | CC1(c2ccccc2)CC(C(=NO)c2cc3cc(Br)ccc3o2)C1 (stereo not drawn)
203 | CC12C=CC=CC1NC(=C1C(=O)c3ccccc3C1=O)C=C2 (stereo not drawn)
206 to 207 | O=C(O)c1csc(-c2cccc(Cl)c2)n1
219 | COC1=CC(=O)CC(C)C12Oc1c(Cl)c(OC)cc(OC)c1C2=O (stereo not drawn)
143 to 144 | O=c1c(Br)c(Br)cnn1-c1ccccc1
> 20 | CCCOC(=O)C(C)c1ccc(-c2ccccc2)c(F)c1 (stereo not drawn)
46 to 50 | Cc1ccc(F)c(C=O)c1Cl
89 to 90 | Cc1nn(-c2ccccc2)nc1C(=O)N1CCCC1
70.5 to 73 | Cc1ccc(S(=O)(=O)OCCCCCCOS(=O)(=O)c2ccc(C)cc2)cc1
37 | CCCC(=O)c1ccc(F)cc1

melting point [°C] | Compound
228 to 230 | Clc1ccc(C=Nc2n[nH]c(N=Cc3ccc(Cl)cc3)c2Cc2ccc(Cl)cc2)cc1
221 | O=C(O)c1ccc(O)c(O)c1O
202 to 207 | c1ccc2cc3c(cc2c1)oc1ccccc13
145 to 147 | Clc1ccc(Cc2c(N=Cc3ccc(OCc4ccccc4)cc3)n[nH]c2N=Cc2ccc(OCc3ccccc3)cc2)cc1
211 | O=C1C(C(O)c2ccc(O)cc2)C(C(F)(F)F)=NN1c1ccccc1 (stereo not drawn)
101 to 103 | Cc1nc(-c2ccccc2)ncc1C=O
104 | Clc1c2ccccc2cc2ccccc12
119 | COc1ccc2ccc(=O)oc2c1
125 | CN(C)c1ccc(C(/C=C2\C=Cc3ccccc3N2)c2ccccc2)cc1 (stereo not drawn)
158 | CCOC(=O)c1c(SC)nn(C(=O)c2ccc([N+](=O)[O-])cc2)c1N
144 to 145 | CC1(c2ccccc2)CC(C(=NOC(=O)Cc2ccccc2)c2cc3ccccc3o2)C1 (stereo not drawn)
171 | Cc1cc(C(F)(F)F)n2nc(N)c(/N=N/c3cccc(C(F)(F)F)c3)c2n1
62 to 65 | CCCCC(=O)c1ccc(O)cc1
157 | COc1ccc2c(c1O)CN1CCC(=O)CC1C2O (stereo not drawn)
159 | C/C(=C\C=C\c1ccccc1)C(=O)O
288 to 291 | O=C(O)c1ccc(-n2cccc2)cc1
121 | N#Cc1c(Cl)cccc1[N+](=O)[O-]
106 | Cc1cc(CCN2CCN(c3cccc(Cl)c3)CC2)n[nH]1
109 to 110 | Cc1noc(-c2ccccc2)c1CO
131 | CCCC(=O)OCN1C(=O)NC(c2ccccc2)(c2ccccc2)C1=O
26 to 32 | BrCC=Cc1ccccc1
105 to 107 | COc1ccc(C2c3cc(OC)c(OC)cc3CCN2C(C)=O)cc1 (stereo not drawn)
180 | O=C(O)c1nc(O)n(-c2ccccc2)n1
